Assay results: ChEMBL document CHEMBL4002627, “Quinolidene based monocarbonyl curcumin analogues as promising antimycobacterial agents: Synthesis and molecular docking study” (Bioorg Med Chem Lett, 2017)
≈ marks a conversion by molar mass, not a printed value.

How the values were obtained:
[1] = Cytotoxicity against human MCF7 cells assessed as growth inhibition at 10 ug/ml after 48 hrs by MTT assay relative to control; type: cell-based; conditions: read-out: GI
[2] = test system: Mycobacterium tuberculosis; experiment: Antimycobacterial activity against dormant state of Mycobacterium tuberculosis H37Ra assessed as growth inhibition at 30 ug/ml after 12 days by XTT reduction menadione assay relative to control; type: functional; conditions: 288 h, read-out: GI
[3] = Cytotoxicity against human A549 cells assessed as growth inhibition at 3 ug/ml after 48 hrs by MTT assay relative to control; type: cell-based; conditions: read-out: GI
[4] = Cytotoxicity against human A549 cells assessed as growth inhibition at 30 ug/ml after 48 hrs by MTT assay relative to control; type: cell-based; conditions: read-out: GI
[5] = Cytotoxicity against human MCF7 cells assessed as growth inhibition at 30 ug/ml after 48 hrs by MTT assay relative to control; type: cell-based; conditions: read-out: GI
[6] = Cytotoxicity against human A549 cells assessed as growth inhibition at 10 ug/ml after 48 hrs by MTT assay relative to control; type: cell-based; conditions: read-out: GI
Staphylococcus aureus = experiment: Antibacterial activity against Staphylococcus aureus ATCC 29213 after 12 hrs; type: functional; conditions: ATCC 29213, 12 h
[7] = Cytotoxicity against human MCF7 cells assessed as growth inhibition at 3 ug/ml after 48 hrs by MTT assay relative to control; type: cell-based; conditions: read-out: GI
[8] = Selectivity index, ratio of GI90 for human HCT116 cells to MIC90 for dormant state of Mycobacterium tuberculosis H37Ra; type: toxicity; conditions: read-out: Selectivity Index
[9] = Selectivity index, ratio of GI90 for human A549 cells to MIC90 for dormant state of Mycobacterium tuberculosis H37Ra; type: toxicity; conditions: read-out: Selectivity Index
HCT-116 = experiment: (§1) Cytotoxicity against human HCT116 cells assessed as growth inhibition after 48 hrs by MTT assay; type: cell-based; conditions: hct-116, 48 h
[10] = as §1; type: cell-based, HCT-116; conditions: HCT116 cells
[11] = Cytotoxicity against human HCT116 cells assessed as growth inhibition at 3 ug/ml after 48 hrs by MTT assay relative to control; type: cell-based, HCT-116; conditions: read-out: GI
[12] = Cytotoxicity against human HCT116 cells assessed as growth inhibition at 30 ug/ml after 48 hrs by MTT assay relative to control; type: cell-based, HCT-116; conditions: read-out: GI
[13] = Selectivity index, ratio of GI90 for human MCF7 cells to MIC90 for dormant state of Mycobacterium tuberculosis H37Ra; type: toxicity; conditions: read-out: Selectivity Index
[14] = test system: Mycobacterium tuberculosis; experiment: Antimycobacterial activity against dormant state of Mycobacterium tuberculosis H37Ra by two fold dilution method; type: functional
MCF7 = experiment: (§2) Cytotoxicity against human MCF7 cells assessed as growth inhibition after 48 hrs by MTT assay; type: cell-based; conditions: mcf7, 48 h
[15] = as §2; type: cell-based; conditions: MCF7 cells
[16] = Cytotoxicity against human HCT116 cells assessed as growth inhibition at 10 ug/ml after 48 hrs by MTT assay relative to control; type: cell-based, HCT-116; conditions: read-out: GI
Bacillus subtilis = experiment: Antibacterial activity against Bacillus subtilis ATCC 23857 after 12 hrs; type: functional; conditions: ATCC 23857, 12 h
[17] = Selectivity index, ratio of GI90 for human MCF7 cells to MIC90 for dormant state of dormant state of Mycobacterium bovis BCG; type: toxicity; conditions: read-out: Selectivity Index
[18] = Selectivity index, ratio of GI90 for human A549 cells to MIC90 for dormant state of dormant state of Mycobacterium bovis BCG; type: toxicity; conditions: read-out: Selectivity Index
A549 = experiment: (§3) Cytotoxicity against human A549 cells assessed as growth inhibition after 48 hrs by MTT assay; type: cell-based; conditions: a549, 48 h
[19] = as §3; type: cell-based; conditions: A549 cells
[20] = Selectivity index, ratio of GI90 for human HCT116 cells to MIC90 for dormant state of dormant state of Mycobacterium bovis BCG; type: toxicity; conditions: read-out: Selectivity Index
[21] = test system: Mycobacterium tuberculosis; experiment: Antimycobacterial activity against dormant state of Mycobacterium tuberculosis H37Ra assessed as growth inhibition at 3 ug/ml after 12 days by XTT reduction menadione assay relative to control; type: functional; conditions: 288 h, read-out: GI
[22] = test system: Mycobacterium tuberculosis; experiment: Antimycobacterial activity against dormant state of Mycobacterium tuberculosis H37Ra assessed as growth inhibition at 10 ug/ml after 12 days by XTT reduction menadione assay relative to control; type: functional; conditions: 288 h, read-out: GI
Escherichia coli = experiment: Antibacterial activity against Escherichia coli ATCC […] after 8 hrs; type: functional
Pseudomonas fluorescens = experiment: Antibacterial activity against Pseudomonas fluorescens ATCC 13525 after 8 hrs; type: functional; conditions: ATCC 13525, 8 h

O=C1/C(=C/c2cc3cc(F)ccc3nc2Cl)CNC/C1=C\c1cc2cc(F)ccc2nc1Cl showed an inhibition at 48 h, 10 ug/ml [1] of 41.1%, an inhibition of growth at 30 µg/mL [2] of 76.9% and an inhibition at 48 h, 3 ug/ml [3] of -5.8%. For the same compound, the inhibition at 48 h, 30 ug/ml [4] was 0%, the inhibition at 48 h, 30 ug/ml [5] was 48.5% and the inhibition at 48 h, 10 ug/ml [6] was 0%. For the same compound, the MIC50 (Staphylococcus aureus) was greater than 30 µg/mL, the MIC90 (Staphylococcus aureus) was greater than 30 µg/mL and the inhibition at 48 h, 3 ug/ml [7] was 40.9%. It also gave a selectivity ratio [8] greater than 3, a selectivity ratio [9] greater than 3 and a GI90 (HCT-116) greater than 100 µg/mL. It also gave a GI50 at 48 h [10] of 27.6 µg/mL (≈ 57.1 µM), an inhibition at 48 h, 3 ug/ml [11] of 35% and an inhibition at 48 h, 30 ug/ml [12] of 55.8%. The selectivity ratio [13] was greater than 3, the MIC50 [14] was 13.7 µg/mL (≈ 28.4 µM) and the MIC90 [14] was greater than 30 µg/mL. It also gave a GI90 (MCF7) greater than 100 µg/mL, a GI50 at 48 h [15] greater than 100 µg/mL and an inhibition at 48 h, 10 ug/ml [16] of 45.3%. The MIC50 (Bacillus subtilis) was greater than 30 µg/mL, the MIC90 (Bacillus subtilis) was greater than 30 µg/mL and the selectivity ratio [17] was greater than 10. It also gave a selectivity ratio [18] greater than 10, a GI90 (A549) greater than 100 µg/mL and a GI50 at 48 h [19] greater than 100 µg/mL. It also gave a selectivity ratio [20] greater than 10, an inhibition of growth at 3 µg/mL [21] of 41.1% and an inhibition of growth at 10 µg/mL [22] of 49%. The MIC50 (Escherichia coli) was greater than 30 µg/mL, the MIC90 (Escherichia coli) was greater than 30 µg/mL and the MIC50 (Pseudomonas fluorescens) was greater than 30 µg/mL. For the same compound, the MIC90 (Pseudomonas fluorescens) was greater than 30 µg/mL.
COc1ccc2cc(/C=C3\CNC/C(=C\c4cc5ccc(OC)cc5nc4Cl)C3=O)c(Cl)nc2c1 showed an inhibition at 48 h, 10 ug/ml [1] of 52.1%, an inhibition of growth at 30 µg/mL [2] of 65.6% and an inhibition at 48 h, 3 ug/ml [3] of 3.8%. The inhibition at 48 h, 30 ug/ml [4] was 36.3%, the inhibition at 48 h, 30 ug/ml [5] was 60.9% and the inhibition at 48 h, 10 ug/ml [6] was 29.8%. It also gave an MIC50 (Staphylococcus aureus) greater than 30 µg/mL, an MIC90 (Staphylococcus aureus) greater than 30 µg/mL and an inhibition at 48 h, 3 ug/ml [7] of 28%. It also gave a selectivity ratio [8] greater than 3, a selectivity ratio [9] greater than 3 and a GI90 (HCT-116) greater than 100 µg/mL. It also gave a GI50 at 48 h [10] greater than 100 µg/mL, an inhibition at 48 h, 3 ug/ml [11] of 26.9% and an inhibition at 48 h, 30 ug/ml [12] of 67.7%. It also gave a selectivity ratio [13] greater than 3, an MIC50 [14] of 2.8 µg/mL (≈ 5.53 µM) and an MIC90 [14] greater than 30 µg/mL. It also gave a GI90 (MCF7) greater than 100 µg/mL, a GI50 at 48 h [15] greater than 100 µg/mL and an inhibition at 48 h, 10 ug/ml [16] of 50.9%. It also gave an MIC50 (Bacillus subtilis) greater than 30 µg/mL, an MIC90 (Bacillus subtilis) greater than 30 µg/mL and a selectivity ratio [17] greater than 37. For the same compound, the selectivity ratio [18] was greater than 37, the GI90 (A549) was greater than 100 µg/mL and the GI50 at 48 h [19] was greater than 100 µg/mL. For the same compound, the selectivity ratio [20] was greater than 37, the inhibition of growth at 3 µg/mL [21] was 50.9% and the inhibition of growth at 10 µg/mL [22] was 54.2%. For the same compound, the MIC50 (Escherichia coli) was greater than 30 µg/mL, the MIC90 (Escherichia coli) was greater than 30 µg/mL and the MIC50 (Pseudomonas fluorescens) was greater than 30 µg/mL. It also gave an MIC90 (Pseudomonas fluorescens) greater than 30 µg/mL.
Work on CO[C@H]1/C=C/O[C@@]2(C)Oc3c(C)c(O)c4c(O)c(c(/C=N/N5CCN(C)CC5)c(O)c4c3C2=O)NC(=O)/C(C)=C\C=C\[C@H](C)[C@H](O)[C@@H](C)[C@@H](O)[C@@H](C)[C@H](OC(C)=O)[C@@H]1C [RIFAMPIN] yielded a selectivity ratio [8] greater than 133, a selectivity ratio [9] greater than 133 and a GI90 (HCT-116) greater than 100 µg/mL. The GI50 at 48 h [10] was greater than 100 µg/mL, the selectivity ratio [13] was greater than 133 and the MIC50 [14] was 0.0019 µg/mL (≈ 0.00231 µM). For the same compound, the MIC90 [14] was 0.02 µg/mL (≈ 0.0243 µM), the GI90 (MCF7) was greater than 100 µg/mL and the GI50 at 48 h [15] was greater than 100 µg/mL. The selectivity ratio [17] was greater than 123, the selectivity ratio [18] was greater than 123 and the GI90 (A549) was greater than 100 µg/mL. It also gave a GI50 at 48 h [19] greater than 100 µg/mL and a selectivity ratio [20] greater than 123.
Work on COc1ccc2nc(Cl)c(/C=C3\CNC/C(=C\c4cc5cc(OC)ccc5nc4Cl)C3=O)cc2c1 yielded an inhibition at 48 h, 10 ug/ml [1] of 32.5%, an inhibition of growth at 30 µg/mL [2] of 95.4% and an inhibition at 48 h, 3 ug/ml [3] of 0%. It also gave an inhibition at 48 h, 30 ug/ml [4] of 0%, an inhibition at 48 h, 30 ug/ml [5] of 27.4% and an inhibition at 48 h, 10 ug/ml [6] of 0%. It also gave an MIC50 (Staphylococcus aureus) greater than 30 µg/mL, an MIC90 (Staphylococcus aureus) greater than 30 µg/mL and an inhibition at 48 h, 3 ug/ml [7] of 4.7%. The GI90 (HCT-116) was greater than 100 µg/mL, the GI50 at 48 h [10] was 9.83 µg/mL (≈ 19.4 µM) and the inhibition at 48 h, 3 ug/ml [11] was 0%. It also gave an inhibition at 48 h, 30 ug/ml [12] of 0%, an MIC50 [14] of 12.1 µg/mL (≈ 23.9 µM) and an MIC90 [14] of 27.9 µg/mL (≈ 55.1 µM). It also gave a GI90 (MCF7) greater than 100 µg/mL, a GI50 at 48 h [15] of 8.93 µg/mL (≈ 17.6 µM) and an inhibition at 48 h, 10 ug/ml [16] of 0%. For the same compound, the MIC50 (Bacillus subtilis) was greater than 30 µg/mL, the MIC90 (Bacillus subtilis) was greater than 30 µg/mL and the GI90 (A549) was greater than 100 µg/mL. For the same compound, the GI50 at 48 h [19] was greater than 100 µg/mL, the inhibition of growth at 3 µg/mL [21] was 31.2% and the inhibition of growth at 10 µg/mL [22] was 44.7%. It also gave an MIC50 (Escherichia coli) greater than 30 µg/mL, an MIC90 (Escherichia coli) greater than 30 µg/mL and an MIC50 (Pseudomonas fluorescens) greater than 30 µg/mL. The MIC90 (Pseudomonas fluorescens) was greater than 30 µg/mL.
